What is called IC50 is the concentration that gives 50% inhibition.

SMILES strings stand for the structures. The source made the active and inactive calls. The rule behind the calls is not given here. Where only a bound is given, the exact number is not on record here.

The assay deals with Bcl-2-related protein A1 (Mus musculus) (UniProt Q07440). As to the kind of experiment: Bfl-1 counter-screen inhibitors, SAR follow-up, counter-screen for UBC13 polyubiquitination inhibitor project, biochemical, mouse Bfl-1 (AID 504685). The conditions noted are these: Bfl-1 counterscreen for UBC13 inhibitors. In general terms: The purpose of a counterscreen is to sort out artefacts and off-target activity.
With `O=C(C1CCN(c2ncnc3c2nc2n3CCCCC2)CC1)N1CCN(Cc2ccccc2)CC1`, the IC50 is > 100 µM (inactive).

With `Cc1c(NC(=O)CCCN2C(=O)c3cccc4cccc(c34)C2=O)c(=O)n(-c2ccccc2)n1C`, the IC50 is > 100 µM (inactive).

Take `O=C(CCCCCN1C(=O)c2ccccc2C1=O)NCCc1nc2ccccc2[nH]1`: the IC50 is > 100 µM (inactive).

On to `CCOc1cccc2sc(N(CCCN(C)C)C(=O)c3ccc(S(=O)(=O)N(CC)Cc4ccccc4)cc3)nc12`, for which the IC50 is 86.6 µM.

Turning to `CN(CCNC(=O)C1CCN(c2ncnc3c2nc2n3CCCCC2)CC1)Cc1ccccc1`, the IC50 is > 100 µM (inactive).

As to `COc1ccc(NC(=O)CCCCCN2C(=O)c3cccc([N+](=O)[O-])c3C2=O)cc1`, the IC50 is > 100 µM (inactive).

As for `CNCc1cc(Br)c(OCC(=O)Nc2ccccc2OC)c(OC)c1`, the IC50 is > 100 µM (inactive).

For the molecule `Cc1ccc(C)c(CN2CCC(CNC(=O)C3CCCN(c4ncnc5c4nc4n5CCCCC4)C3)CC2)c1` (centres undefined), the IC50 is > 100 µM (inactive).

With `O=C(C1CCN(c2ncnc3c2nc2n3CCCCC2)CC1)N1CCOCC1`, the IC50 is > 100 µM (inactive).

As to `O=C(c1ccco1)N1CCN(C(=O)C2CCN(c3ncnc4c3nc3n4CCCCC3)CC2)CC1`, the IC50 was > 100 µM (inactive).

With `O=C(CCCn1c(=O)c2ccccc2n(Cc2cccc(F)c2)c1=O)NC1CCN(Cc2ccccc2)CC1`, the IC50 was > 100 µM (inactive).

`CN(C)CCCN(C(=O)c1ccc(S(=O)(=O)N2CCCCC2)cc1)c1nc2cc3c(cc2s1)OCO3`: the IC50 was > 100 µM (inactive).

With `O=C(C1CCN(c2ncnc3c2nc2n3CCCCC2)CC1)N1CCN(c2ccccc2)CC1`, the IC50 was > 100 µM (inactive).

`COc1cc2nc(N(CCCN(C)C)C(=O)c3ccc(S(=O)(=O)N4CCc5ccccc5C4)cc3)sc2cc1OC`: the half-inhibitory concentration (IC50) is 69.3 µM.

As to `CCCOC(=O)c1ccc(NC(=O)CCCCCN2C(=O)c3ccccc3C2=O)cc1`, the IC50 was > 100 µM (inactive).

On to `Cc1cc(NS(=O)(=O)c2ccc(NC(=O)CCCCCN3C(=O)c4ccccc4C3=O)cc2)nc(C)n1`, for which the IC50 was > 100 µM (inactive).

For the molecule `Cc1cc(OCC(O)CN2CCN(CCN3C(=O)c4cccc5cccc(c45)C3=O)CC2)ccc1C(C)C` (centres undefined), the IC50 was > 100 µM (inactive).

Take `CC1CC(C)CN(C(=O)C2CCN(c3ncnc4c3nc3n4CCCCC3)CC2)C1` (centres undefined): the IC50 was > 100 µM (inactive).

For the molecule `O=C(CCCCCN1C(=O)c2ccccc2C1=O)NCc1ccccn1`, the IC50 is > 100 µM (inactive).

Regarding `CN(C)CCCN(C(=O)c1ccc(S(=O)(=O)N2CCCC2)cc1)c1nc2ccc(Br)cc2s1`, the IC50 is > 100 µM (inactive).

For the molecule `CCOc1ccc2nc(N(CCCN(C)C)C(=O)c3ccc(C(=O)c4ccccc4)cc3)sc2c1`, the IC50 is > 100 µM (inactive).

With `CN(C)CCCN(C(=O)c1ccc(C(=O)c2ccccc2)cc1)c1nc2cc3c(cc2s1)OCO3`, the IC50 is > 100 µM (inactive).

As for `O=C(C1COc2ccccc2O1)N1CCN(CCN2C(=O)c3cccc4cccc(c34)C2=O)CC1` (centres undefined), the IC50 is > 100 µM (inactive).

Consider `O=C(CCCCCN1C(=O)c2cccc([N+](=O)[O-])c2C1=O)NCc1ccccc1`, for which the IC50 was > 100 µM (inactive).

For the molecule `O=C(NCCCN1CCN(c2ccccc2)CC1)C1CCCN(c2ncnc3c2nc2n3CCCCC2)C1` (centres undefined), the IC50 is > 100 µM (inactive).

For `O=C(CCCn1c(=O)c2ccccc2n(Cc2ccc(Cl)cc2)c1=O)NC1CCN(Cc2ccccc2)CC1`, the IC50 is > 100 µM (inactive).

For the molecule `Cc1cccc(C)c1NC(=O)Cn1c(=O)n(CCCC(=O)NC2CCN(Cc3ccccc3)CC2)c(=O)c2ccccc21`, the IC50 is > 100 µM (inactive).

As for `O=C(NCCCN1CCN(c2ccc(F)cc2)CC1)C1CCCN(c2ncnc3c2nc2n3CCCCC2)C1` (centres undefined), the IC50 was > 100 µM (inactive).

For the molecule `COc1cc(/C=C/c2cc[n+](C)cc2)ccc1OCC(=O)Nc1ccc(Cl)c(Cl)c1`, the IC50 was 55.3 µM.

On to `Cc1cc(C)c2sc(N(CCCN(C)C)C(=O)c3ccc(S(=O)(=O)N(C)Cc4ccccc4)cc3)nc2c1`, for which the IC50 is > 100 µM (inactive).

In the case of `CC(=O)c1ccc(OCC(O)CN2CCN(CCN3C(=O)c4cccc5cccc(c45)C3=O)CC2)cc1` (centres undefined), the IC50 is 73.5 µM.

As to `CCOc1cccc2sc(N(CCCN(C)C)C(=O)c3ccc(S(=O)(=O)N4CCc5ccccc5C4)cc3)nc12`, the IC50 was > 100 µM (inactive).

On to `CCOc1cccc2sc(N(CCCN(C)C)C(=O)c3ccc(S(=O)(=O)N(C)Cc4ccccc4)cc3)nc12`, for which the IC50 is > 100 µM (inactive).

For `Cc1cc(NC(=O)Cn2c(=O)n(CCCCC(=O)NC3CCN(Cc4ccccc4)CC3)c(=O)c3ccccc32)n[nH]1`, the IC50 is > 100 µM (inactive).

Regarding `Cc1cc(C)c2sc(N(CCCN(C)C)C(=O)c3ccc(S(=O)(=O)N(C)C4CCCCC4)cc3)nc2c1`, the IC50 is > 100 µM (inactive).

As for `O=C1c2cccc3cccc(c23)C(=O)N1CCN1CCN(CC(O)COc2ccccc2)CC1` (centres undefined), the IC50 was > 100 µM (inactive).

For `O=C(NCCCN1CCCCC1)C1CCN(c2ncnc3c2nc2n3CCCCC2)CC1`, the IC50 is > 100 µM (inactive).

Regarding `O=C(NCC1CCN(Cc2ccccc2F)CC1)C1CCCN(c2ncnc3c2nc2n3CCCCC2)C1` (centres undefined), the IC50 was > 100 µM (inactive).

For the molecule `COCCOC(=O)c1ccc(NC(=O)CCCCCN2C(=O)c3ccccc3C2=O)cc1`, the IC50 is > 100 µM (inactive).

With `O=C(CCCCn1c(=O)c2ccccc2n(Cc2ccccc2)c1=O)NC1CCN(Cc2ccccc2)CC1`, the IC50 is > 100 µM (inactive).

On to `Cc1ccccc1OCC(O)CN1CCN(CCN2C(=O)c3cccc4cccc(c34)C2=O)CC1` (centres undefined), for which the IC50 was > 100 µM (inactive).

Take `COc1ccc(OC)c2sc(N(CCCN(C)C)C(=O)c3ccc(S(=O)(=O)N4CCc5ccccc5C4)cc3)nc12`: the IC50 is 12 µM.

With `C=CCc1ccccc1OCC(O)CN1CCN(CCN2C(=O)c3cccc4cccc(c34)C2=O)CC1` (centres undefined), the IC50 is > 100 µM (inactive).

`COc1cccc2sc(N(CCCN(C)C)C(=O)c3ccc(S(=O)(=O)N4CCc5ccccc5C4)cc3)nc12`: the concentration for half-maximal inhibition (IC50) was 24.1 µM.

In the case of `CCc1ccc(OCC(O)CN2CCC(CN3C(=O)c4cccc5cccc(c45)C3=O)CC2)cc1` (centres undefined), the IC50 was > 100 µM (inactive).

As for `O=C(NCC1CCN(Cc2cccc(Cl)c2)CC1)C1CCCN(c2ncnc3c2nc2n3CCCCC2)C1` (centres undefined), the IC50 was > 100 µM (inactive).

Regarding `CN1CCN(CCCNC(=O)c2ccc(/C=C3\Oc4ccccc4N(Cc4ccc(Cl)cc4)C3=O)cc2)CC1`, the IC50 was > 100 µM (inactive).

Turning to `O=C(NCC1CCN(Cc2ccc(Cl)cc2)CC1)C1CCCN(c2ncnc3c2nc2n3CCCCC2)C1` (centres undefined), the IC50 was > 100 µM (inactive).

Regarding `Cc1ccc(OCC(O)CN2CCN(CCN3C(=O)c4cccc5cccc(c45)C3=O)CC2)c(C)c1` (centres undefined), the IC50 was 97 µM.

Consider `Cc1cc(C)cc(OCCNC(=O)CCCCCN2C(=O)c3ccccc3C2=O)c1`, for which the IC50 was > 100 µM (inactive).

Consider `CN(C)CCCN(C(=O)c1ccc(S(=O)(=O)N2CCCCCC2)cc1)c1nc2cc3c(cc2s1)OCCO3`, for which the IC50 is > 100 µM (inactive).

`COC(=O)C1=C(NC(=O)CCCCCN2C(=O)c3ccccc3C2=O)SC2CCCC12` (centres undefined): the IC50 is > 100 µM (inactive).

Consider `CN(C)CCCn1c(SCC(=O)Nc2nc(-c3cccc(Br)c3)cs2)nc2ccccc2c1=O`, for which the IC50 is 16.9 µM.

On to `O=C(CCCCCN1C(=O)c2ccccc2C1=O)Nc1nc(C2CC2)cs1`, for which the IC50 is > 100 µM (inactive).

For `CCCCN(CC)S(=O)(=O)c1ccc(C(=O)N(CCCN(C)C)c2nc3cc(C)cc(C)c3s2)cc1`, the IC50 is > 100 µM (inactive).

`Cc1[nH]c2c(Cl)c(Cl)ccc2c1CCNC(=O)CCCCCN1C(=O)c2ccccc2C1=O`: the IC50 was > 100 µM (inactive).

Consider `O=C1c2cccc3cccc(c23)C(=O)N1CCN1CCN(CC(O)COCc2ccc(Cl)cc2)CC1` (centres undefined), for which the IC50 was > 100 µM (inactive).

Regarding `COc1cccc(OCC(O)CN2CCN(CCN3C(=O)c4cccc5cccc(c45)C3=O)CC2)c1` (centres undefined), the IC50 is > 100 µM (inactive).

As for `COc1ccc(C(=O)Nn2c(C)nc3ccccc3c2=O)cc1`, the IC50 was > 100 µM (inactive).

In the case of `CCC1CCCCN1CCCNC(=O)C1CCN(c2ncnc3c2nc2n3CCCCC2)CC1` (centres undefined), the IC50 was > 100 µM (inactive).

As to `CC(C)(C)c1ccc(OCC(O)CN2CCN(CCN3C(=O)c4cccc5cccc(c45)C3=O)CC2)cc1` (centres undefined), the IC50 was > 100 µM (inactive).

Turning to `O=C1c2cccc3cccc(c23)C(=O)N1CC1CCN(CC(O)COCc2ccc3c(c2)OCO3)CC1` (centres undefined), the IC50 is 96.2 µM.

For the molecule `CC1(C)Cc2c(sc(NC(=O)COc3ccc(Cl)cc3Cl)c2C(N)=O)C(C)(C)N1`, the IC50 was > 100 µM (inactive).

Turning to `CC1CN(S(=O)(=O)c2ccc(NC(=O)CCCCCN3C(=O)c4ccccc4C3=O)cc2)CC(C)O1` (centres undefined), the IC50 is > 100 µM (inactive).

For `NNC(=O)c1ccc(CN2C(=O)c3cccc4cccc2c34)cc1`, the IC50 is > 100 µM (inactive).

Take `CC1CCCCN1C(=O)C1CCN(c2ncnc3c2nc2n3CCCCC2)CC1` (centres undefined): the IC50 is > 100 µM (inactive).

On to `CN(C)CCCN(C(=O)c1ccc(C(=O)c2ccccc2)cc1)c1nc2cc3c(cc2s1)OCCO3`, for which the IC50 was 85.3 µM.

On to `O=C(NCC1CCN(Cc2ccc(F)cc2)CC1)C1CCCN(c2ncnc3c2nc2n3CCCCC2)C1` (centres undefined), for which the IC50 is > 100 µM (inactive).

As to `O=C(C1CCN(c2ncnc3c2nc2n3CCCCC2)CC1)N1CCN(c2ccccn2)CC1`, the IC50 is > 100 µM (inactive).

Regarding `Cc1cc(C)c2sc(N(CCCN(C)C)C(=O)c3ccc(S(=O)(=O)N4CCc5ccccc5C4)cc3)nc2c1`, the IC50 is > 100 µM (inactive).

With `CCCN1CCN(C(=O)C2CCN(c3ncnc4c3nc3n4CCCCC3)CC2)CC1`, the IC50 was > 100 µM (inactive).

As for `COc1ccc(C)c2sc(N(CCCN(C)C)C(=O)c3ccc(S(=O)(=O)N(C)C)cc3)nc12`, the IC50 is > 100 µM (inactive).

`O=C1c2cccc3cccc(c23)C(=O)N1CCN1CCN(CC(O)COc2ccc(Cl)cc2)CC1` (centres undefined): the IC50 is > 100 µM (inactive).

Turning to `O=C(CCCCCN1C(=O)c2ccccc2C1=O)N1CCN(c2ccc([N+](=O)[O-])cc2)CC1`, the IC50 was > 100 µM (inactive).

The record behind these values is PubChem BioAssay AID504685 (Sanford-Burnham Center for Chemical Genomics, 2011).
